# Reference: ChEMBL document CHEMBL2440076, “New triarylpyrazoles as broad-spectrum anticancer agents: design, synthesis, and biological evaluation” (Eur J Med Chem, 2013)
# How the values were obtained:
# Assay type in all cases: functional
# KM12 [1] = assay: Growth inhibition of human KM12 cells assessed as cell growth at 10^-6 M after 48 hrs by sulforhodamine B assay; conditions: KM12, 48 h, read-out: Activity
# 786-0 [2] = assay: Growth inhibition of human 786-0 cells assessed as cell growth at 10^-4 M after 48 hrs by sulforhodamine B assay; conditions: 786-0, 48 h, read-out: Activity
# OVCAR-5 = assay: Growth inhibition of human OVCAR5 cells assessed as cell growth at 10^-5 M after 48 hrs by sulforhodamine B assay; conditions: OVCAR-5, 48 h, read-out: Activity
# SNB-19 [3] = assay: Growth inhibition of human SNB19 cells assessed as cell growth at 10^-7 M after 48 hrs by sulforhodamine B assay; conditions: SNB-19, 48 h, read-out: Activity
# MDA-MB-468 = assay: Growth inhibition of human MDA-MB-468 cells assessed as cell growth at 10^-6 M after 48 hrs by sulforhodamine B assay; conditions: MDA-MB-468, 48 h, read-out: Activity
# SNB-19 [4] = assay: Growth inhibition of human SNB19 cells assessed as cell growth at 10^-8 M after 48 hrs by sulforhodamine B assay; conditions: SNB-19, 48 h, read-out: Activity
# NCI-H322M = assay: Growth inhibition of human NCI-H322M cells assessed as cell growth at 10^-7 M after 48 hrs by sulforhodamine B assay; conditions: read-out: Activity
# SN12C = assay: Growth inhibition of human SN12C cells assessed as cell growth at 10^-8 M after 48 hrs by sulforhodamine B assay; conditions: read-out: Activity
# SNB-75 = assay: Growth inhibition of human SNB75 cells assessed as cell growth at 10^-7 M after 48 hrs by sulforhodamine B assay; conditions: SNB-75, 48 h, read-out: Activity
# NCI-H226 [5] = assay: Growth inhibition of human NCI-H226 cells assessed as cell growth at 10^-5 M after 48 hrs by sulforhodamine B assay; conditions: NCI-H226, 48 h, read-out: Activity
# 786-0 [6] = assay: Growth inhibition of human 786-0 cells assessed as cell growth at 10^-7 M after 48 hrs by sulforhodamine B assay; conditions: 786-0, 48 h, read-out: Activity
# NCI-H522 [7] = assay: Growth inhibition of human NCI-H522 cells assessed as cell growth at 10^-5 M after 48 hrs by sulforhodamine B assay; conditions: NCI-H522, 48 h, read-out: Activity
# MOLT-4 = assay: Growth inhibition of human MOLT4 cells assessed as cell growth at 10^-6 M after 48 hrs by sulforhodamine B assay; conditions: MOLT-4, 48 h, read-out: Activity
# RXF 393 = assay: Growth inhibition of human RXF393 cells assessed as cell growth at 10^-8 M after 48 hrs by sulforhodamine B assay; conditions: RXF 393, 48 h, read-out: Activity
# SF-539 [8] = assay: Growth inhibition of human SF539 cells assessed as cell growth at 10^-6 M after 48 hrs by sulforhodamine B assay; conditions: SF-539, 48 h, read-out: Activity
# COLO 205 = assay: Growth inhibition of human COLO205 cells assessed as cell growth at 10^-6 M after 48 hrs by sulforhodamine B assay; conditions: COLO 205, 48 h, read-out: Activity
# MDA-MB-435 [9] = assay: Growth inhibition of human MDA-MB-435 cells assessed as cell growth at 10^-6 M after 48 hrs by sulforhodamine B assay; conditions: MDA-MB-435, 48 h, read-out: Activity
# SF-268 = assay: Growth inhibition of human SF268 cells assessed as cell growth at 10^-6 M after 48 hrs by sulforhodamine B assay; conditions: SF-268, 48 h, read-out: Activity
# SK-OV-3 [10] = assay: Growth inhibition of human SKOV3 cells assessed as cell growth at 10^-5 M after 48 hrs by sulforhodamine B assay; conditions: SK-OV-3, 48 h, read-out: Activity
# SK-MEL-5 = assay: Growth inhibition of human SK-MEL-5 cells assessed as cell growth at 10^-7 M after 48 hrs by sulforhodamine B assay; conditions: SK-MEL-5, 48 h, read-out: Activity
# SW-620 = assay: Growth inhibition of human SW620 cells assessed as cell growth at 10^-7 M after 48 hrs by sulforhodamine B assay; conditions: SW-620, 48 h, read-out: Activity
# OVCAR-4 = assay: Growth inhibition of human OVCAR4 cells assessed as cell growth […] after 48 hrs by sulforhodamine B assay; conditions: OVCAR-4, 48 h, read-out: Activity
# SF-539 [11] = assay: Growth inhibition of human SF539 cells assessed as cell growth at 10^-4 M after 48 hrs by sulforhodamine B assay; conditions: SF-539, 48 h, read-out: Activity
# CCRF-CEM = assay: Growth inhibition of human CCRF-CEM cells assessed as cell growth at 10^-6 M after 48 hrs by sulforhodamine B assay; conditions: read-out: Activity
# RPMI-8226 = assay: Growth inhibition of human RPMI8226 cells assessed as cell growth at 10^-6 M after 48 hrs by sulforhodamine B assay; conditions: RPMI-8226, 48 h, read-out: Activity
# Malme-3M = assay: Growth inhibition of human MALME-3M cells assessed as cell growth at 10^-6 M after 48 hrs by sulforhodamine B assay; conditions: read-out: Activity
# TK-10 = assay: Growth inhibition of human TK10 cells assessed as cell growth at 10^-5 M after 48 hrs by sulforhodamine B assay; conditions: TK-10, 48 h, read-out: Activity
# SNB-19 [12] = assay: Growth inhibition of human SNB19 cells assessed as cell growth at 10^-5 M after 48 hrs by sulforhodamine B assay; conditions: SNB-19, 48 h, read-out: Activity
# MDA-MB-435 [13] = assay: Growth inhibition of human MDA-MB-435 cells assessed as cell growth at 10^-8 M after 48 hrs by sulforhodamine B assay; conditions: MDA-MB-435, 48 h, read-out: Activity
# KM12 [14] = assay: Growth inhibition of human KM12 cells assessed as cell growth at 10^-8 M after 48 hrs by sulforhodamine B assay; conditions: KM12, 48 h, read-out: Activity
# UACC-257 = assay: Growth inhibition of human UACC257 cells assessed as cell growth at 10^-6 M after 48 hrs by sulforhodamine B assay; conditions: UACC-257, 48 h, read-out: Activity
# NCI-H226 [15] = assay: Growth inhibition of human NCI-H226 cells assessed as cell growth at 10^-8 M after 48 hrs by sulforhodamine B assay; conditions: NCI-H226, 48 h, read-out: Activity
# HOP-92 = assay: Growth inhibition of human HOP92 cells assessed as cell growth at 10^-5 M after 48 hrs by sulforhodamine B assay; conditions: HOP-92, 48 h, read-out: Activity
# NCI-H522 [16] = assay: Growth inhibition of human NCI-H522 cells assessed as cell growth at 10^-8 M after 48 hrs by sulforhodamine B assay; conditions: NCI-H522, 48 h, read-out: Activity
# SK-OV-3 [17] = assay: Growth inhibition of human SKOV3 cells assessed as cell growth at 10^-4 M after 48 hrs by sulforhodamine B assay; conditions: SK-OV-3, 48 h, read-out: Activity
# LOX IMVI [18] = assay: Growth inhibition of human LOXIMVI cells assessed as cell growth at 10^-4 M after 48 hrs by sulforhodamine B assay; conditions: read-out: Activity
# LOX IMVI [19] = assay: Growth inhibition of human LOXIMVI cells assessed as cell growth at 10^-5 M after 48 hrs by sulforhodamine B assay; conditions: read-out: Activity
# A549 = assay: Growth inhibition of human A549/ATCC cells assessed as cell growth at 10^-7 M after 48 hrs by sulforhodamine B assay; conditions: A549, 48 h, read-out: Activity
Compound,growth at 1 µM (KM12 [1]) [%],growth at 100 µM (786-0 [2]) [%],growth at 10 µM (OVCAR-5) [%],growth at 0.1 µM (SNB-19 [3]) [%],growth at 1 µM (MDA-MB-468) [%],growth at 0.01 µM (SNB-19 [4]) [%],growth at 0.1 µM (NCI-H322M) [%],growth at 0.01 µM (SN12C) [%],growth at 0.1 µM (SNB-75) [%],growth at 10 µM (NCI-H226 [5]) [%],growth at 0.1 µM (786-0 [6]) [%],growth at 10 µM (NCI-H522 [7]) [%],growth at 1 µM (MOLT-4) [%],growth at 0.01 µM (RXF 393) [%],growth at 1 µM (SF-539 [8]) [%],growth at 1 µM (COLO 205) [%],growth at 1 µM (MDA-MB-435 [9]) [%],growth at 1 µM (SF-268) [%],growth at 10 µM (SK-OV-3 [10]) [%],growth at 0.1 µM (SK-MEL-5) [%],also measured
COc1cc(-c2nn(-c3cccc(NC(=O)c4ccccc4)c3)cc2-c2ccncc2)ccc1Cl,36,18,59,97,17,99,85,96,86,26,92,4,41,100,21,32,-28,47,31,91,growth at 0.1 µM (SW-620): 92%; growth at 100 µM (OVCAR-4): 30%; growth at 100 µM (SF-539 [11]): -22%; growth at 1 µM (CCRF-CEM): 27%; growth at 1 µM (RPMI-8226): 46%; growth at 1 µM (Malme-3M): 38%; growth at 10 µM (TK-10): 45%; growth at 10 µM (SNB-19 [12]): 30%; growth at 0.01 µM (MDA-MB-435 [13]): 96%; growth at 0.01 µM (KM12 [14]): 101%; growth at 1 µM (UACC-257): 47%; growth at 0.01 µM (NCI-H226 [15]): 97%; growth at 10 µM (HOP-92): -8%; growth at 0.01 µM (NCI-H522 [16]): 91%; growth at 100 µM (SK-OV-3 [17]): 19%; growth at 100 µM (LOX IMVI [18]): 7%; growth at 10 µM (LOX IMVI [19]): 11%; growth at 0.1 µM (A549): 94%
COc1cc(-c2nn(-c3cccc(NC(=O)c4ccc(N5CCOCC5)c(C(F)(F)F)c4)c3)cc2-c2ccncc2)ccc1Cl,28,3,16,81,-9,92,100,95,75,15,100,-14,38,118,-30,5,-33,41,-11,53,growth at 0.1 µM (SW-620): 58%; growth at 100 µM (OVCAR-4): 18%; growth at 100 µM (SF-539 [11]): -40%; growth at 1 µM (CCRF-CEM): 12%; growth at 1 µM (RPMI-8226): 16%; growth at 1 µM (Malme-3M): 33%; growth at 10 µM (TK-10): 14%; growth at 10 µM (SNB-19 [12]): 22%; growth at 0.01 µM (MDA-MB-435 [13]): 90%; growth at 0.01 µM (KM12 [14]): 108%; growth at 1 µM (UACC-257): 49%; growth at 0.01 µM (NCI-H226 [15]): 102%; growth at 10 µM (HOP-92): -26%; growth at 0.01 µM (NCI-H522 [16]): 97%; growth at 100 µM (SK-OV-3 [17]): -28%; growth at 100 µM (LOX IMVI [18]): -34%; growth at 10 µM (LOX IMVI [19]): -8%; growth at 0.1 µM (A549): 69%
